These results are taken from patent US9102621B2, “Acyl sulfonamide compounds” (Pfizer Limited, priority 2010, dated 2015).

This assay deals with T1, Nav1.7 (or SCN9A) channel (Homo sapiens, UniProt Q15858).
T1 construct: expressed in transfected cells
As to the kind of experiment: Nav1.7 (hSCN9A) channel block, PatchXpress whole-cell electrophysiology. The format is cell-based. As to conditions: PatchXpress platform; HEK cells stably transfected with hSCN9A; estimated IC-50 calculated from single point % inhibition at V1/2; read-out: Nav1.7 EIC50. As for the experimental part: The ability of the compounds of formula (I) to block the Nav1.7 (or SCN9A) channel were measured using the assay described below.
Human Embryonic Kidney (HEK) cells were transfected with an hSCN9A construct using lipofectamine reagent (Invitrogen), using standard techniques. Cells stably expressing the hSCN9A constructs were identified by their resistance to G-418 (400 μg/ml). Clones were screened for expression using the whole-cell voltage-clamp technique.
HEK cells stably transfected with hSCN9A were maintained in DMEM medium supplemented with 10% heat-inactivated fetal bovine serum and 400 μg/ml G-418 in an incubator at 37° C. with a humidified atmosphere of 10% CO2. For HTS, cells were harvested from flasks by trypsinization and replated in an appropriate multi-well plate (typically 96 or 384 wells/plate) such that confluence would be achieved within 24 hours of plating. For electrophysiological studies, cells were removed from the culture flask by brief trypsinization and re-plated at low density onto glass cover slips. Cells were typically used for electrophysiological experiments within 24 to 72 hours after plating.
Cover slips containing HEK cells expressing hSCN9A were placed in a bath on the stage of an inverted microscope and perfused (approximately 1 ml/minutes) with extracellular solution of the following composition: 138 mM NaCl, 2 mM CaCl2, 5.4 mM KCl, 1 mM MgCl2, 10 mM glucose, and 10 mM HEPES, pH 7.4, with NaOH. […] The osmolarity of the extracellular and intracellular solutions was 300 mOsm/kg and 295 mOsm/kg, respectively. All recordings were made at room temperature (22-24° C.) using AXOPATCH 200B amplifiers and PCLAMP software (Axon Instruments, Burlingame, Calif.).
hSCN9A currents in HEK cells were measured using the whole-cell configuration of the patch-clamp technique (Hamill et al., 1981). Uncompensated series resistance was typically 2 to 5 mega ohms and >85% series resistance compensation was routinely achieved. As a result, voltage errors were negligible and no correction was applied. Current records were acquired at 20 to 50 KHz and filtered at 5 to 10 KHz.
HEK cells stably transfected with hSCN9A were viewed under Hoffman contrast optics and placed in front of an array of flow pipes emitting either control or compound-containing extracellular solutions. All compounds were dissolved in dimethyl sulfoxide to make 10 mM stock solutions, which were then diluted into extracellular solution to attain the final concentrations desired. […] The voltage-dependence of inactivation was determined by applying a series of depolarizing prepulses (8 sec long in 10 mV increments) from a negative holding potential. The voltage was then immediately stepped to 0 mV to assess the magnitude of the sodium current. Currents elicited at 0 mV were plotted as a function of prepulse potential to allow estimation of the voltage at which 50% of the channels were inactivated (midpoint of inactivation or V1/2). Compounds were tested for their ability to inhibit hSCN9A sodium channels by activating the channel with a 20 msec voltage step to 0 mV following an 8 second conditioning prepulse to the empirically determined V1/2. Compound effect (% inhibition) was determined by difference in current amplitude before and after application of test compounds. […] Inhibition values <20% and >80% were excluded from the calculation.
Electrophysiological assays were conducted with PatchXpress 7000 hardware and associated software (Molecular Devices Corp). All assay buffers and solutions were identical to those used in conventional whole-cell voltage clamp experiments described above. hSCN9A cells were grown as above to 50%-80% confluency and harvested by trypsinization. Trypsinized cells were washed and resuspended in extracellular buffer at a concentration of 1×10^6 cells/ml. The onboard liquid handling facility of the PatchXpress was used for dispensing cells and application of test compounds. […]

T1 sequence (Q15858 whole entry): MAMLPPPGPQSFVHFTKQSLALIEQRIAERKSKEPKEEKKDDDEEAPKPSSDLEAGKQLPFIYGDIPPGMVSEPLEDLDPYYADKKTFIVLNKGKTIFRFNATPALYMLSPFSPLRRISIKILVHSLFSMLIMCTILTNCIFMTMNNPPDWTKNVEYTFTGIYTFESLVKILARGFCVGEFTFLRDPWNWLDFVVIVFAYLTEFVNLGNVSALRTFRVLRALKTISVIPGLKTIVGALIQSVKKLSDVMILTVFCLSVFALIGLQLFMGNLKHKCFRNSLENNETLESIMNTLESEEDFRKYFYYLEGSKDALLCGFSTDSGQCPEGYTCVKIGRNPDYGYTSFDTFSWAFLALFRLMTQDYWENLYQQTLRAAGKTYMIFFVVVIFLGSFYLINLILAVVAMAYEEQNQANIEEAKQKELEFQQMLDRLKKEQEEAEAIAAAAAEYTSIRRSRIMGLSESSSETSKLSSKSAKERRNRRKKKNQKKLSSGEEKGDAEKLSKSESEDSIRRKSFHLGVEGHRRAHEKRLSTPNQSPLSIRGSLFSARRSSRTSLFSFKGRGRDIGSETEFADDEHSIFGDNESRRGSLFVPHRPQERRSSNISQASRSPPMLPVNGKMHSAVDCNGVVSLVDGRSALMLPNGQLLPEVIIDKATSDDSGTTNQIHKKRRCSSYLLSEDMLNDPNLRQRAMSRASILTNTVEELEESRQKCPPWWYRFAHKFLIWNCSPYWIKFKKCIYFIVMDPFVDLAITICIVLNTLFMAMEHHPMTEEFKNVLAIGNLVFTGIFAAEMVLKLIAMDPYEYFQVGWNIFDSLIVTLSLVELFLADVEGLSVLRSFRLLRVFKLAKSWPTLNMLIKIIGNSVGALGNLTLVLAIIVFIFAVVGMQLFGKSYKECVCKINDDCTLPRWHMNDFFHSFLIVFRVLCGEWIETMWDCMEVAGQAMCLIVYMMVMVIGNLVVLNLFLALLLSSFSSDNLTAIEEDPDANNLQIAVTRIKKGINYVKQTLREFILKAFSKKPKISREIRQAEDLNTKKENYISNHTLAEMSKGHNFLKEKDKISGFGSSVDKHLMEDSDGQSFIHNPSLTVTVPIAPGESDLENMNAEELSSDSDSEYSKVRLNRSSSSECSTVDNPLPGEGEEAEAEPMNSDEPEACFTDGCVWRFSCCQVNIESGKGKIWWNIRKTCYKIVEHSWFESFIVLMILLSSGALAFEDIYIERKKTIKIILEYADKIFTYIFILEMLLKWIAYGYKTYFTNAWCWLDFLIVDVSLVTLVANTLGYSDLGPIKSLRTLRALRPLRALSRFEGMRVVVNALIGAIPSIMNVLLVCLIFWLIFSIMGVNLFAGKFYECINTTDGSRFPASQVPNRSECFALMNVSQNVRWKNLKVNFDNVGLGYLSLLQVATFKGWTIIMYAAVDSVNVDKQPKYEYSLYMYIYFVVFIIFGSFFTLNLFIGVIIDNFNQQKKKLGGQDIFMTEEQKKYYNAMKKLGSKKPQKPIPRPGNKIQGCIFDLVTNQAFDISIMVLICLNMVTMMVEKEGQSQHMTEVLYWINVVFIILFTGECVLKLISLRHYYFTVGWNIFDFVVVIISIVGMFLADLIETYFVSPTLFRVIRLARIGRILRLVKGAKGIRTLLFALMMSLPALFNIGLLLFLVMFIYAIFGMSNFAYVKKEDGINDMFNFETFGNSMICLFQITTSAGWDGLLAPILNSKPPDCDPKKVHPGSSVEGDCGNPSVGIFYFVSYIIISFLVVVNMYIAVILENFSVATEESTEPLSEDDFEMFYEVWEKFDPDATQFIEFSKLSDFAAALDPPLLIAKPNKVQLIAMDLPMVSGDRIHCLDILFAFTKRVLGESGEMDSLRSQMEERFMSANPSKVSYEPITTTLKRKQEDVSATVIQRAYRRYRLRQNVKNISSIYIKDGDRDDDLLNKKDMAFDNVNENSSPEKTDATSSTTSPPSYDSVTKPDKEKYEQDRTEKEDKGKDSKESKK

For the compound `CC(Oc1ncc(OCc2cc(F)c(C(=O)NS(C)(=O)=O)cc2Cl)cc1Cl)C(F)(F)F` (stereo not shown) [Example 31, 5-Chloro-4-((5-chloro-6-(1,1,1-trifluoropropan-2-yloxy)pyridin-3-yloxy)methyl)-2-fluoro-N-(methylsulfonyl)benzamide], the IC50 was below 100 nM.

With `[2H]C([2H])([2H])C(Oc1ncc(OCc2cc(F)c(C(=O)NS(C)(=O)=O)cc2Cl)cc1Cl)(C([2H])([2H])[2H])C([2H])([2H])[2H]` [Example 32, 4-{[(6-d9-tert-Butoxy-5-chloropyridin-3-yl)oxy]methyl}-5-chloro-2-fluoro-N-(methylsulfonyl)benzamide], the IC50 is 11 nM.

As to `COc1ncc(OCc2cc(F)c(C(=O)NS(C)(=O)=O)cc2Cl)cc1Cl` [Example 33, 5-Chloro-4-{[(5-chloro-6-methoxypyridin-3-yl)oxy]methyl}-2-fluoro-N-(methylsulfonyl)benzamide], the IC50 is 380 nM.

Turning to `[2H]C(C)(C)Oc1ncc(OCc2cc(F)c(C(=O)NS(C)(=O)=O)cc2Cl)cc1Cl` [Example 34, 5-Chloro-4-{[(5-chloro-6-d1-isopropoxypyridin-3-yl)oxy]methyl}-2-fluoro-N-(methylsulfonyl)benzamide], the IC50 was 82.2 nM.

`CC(C)Oc1ncc(OCc2cc(F)c(C(=O)NS(C)(=O)=O)cc2Cl)cc1Cl` [Example 35, 5-Chloro-4-((5-chloro-6-isopropoxypyridin-3-yloxy)methyl)-2-fluoro-N-(methylsulfonyl)benzamide]: the IC50 is 28 nM.

With `CC(C)C(F)(F)c1ncc(OCc2cc(F)c(C(=O)NS(C)(=O)=O)cc2Cl)cc1Cl` [Example 36, 5-Chloro-4-({[5-chloro-6-(1,1-difluoro-2-methylpropyl)pyridin-3-yl]oxy}methyl)-2-fluoro-N-(methylsulfonyl)benzamide], the IC50 was 52.7 nM.

Take `CS(=O)(=O)NC(=O)c1cc(Cl)c(COc2cnc(OCC(F)(F)C(F)F)c(Cl)c2)cc1F` [Example 37, 5-Chloro-4-({[5-chloro-6-(2,2,3,3-tetrafluoropropoxy)pyridin-3-yl]oxy}methyl)-2-fluoro-N-(methylsulfonyl)benzamide]: the IC50 was 9.1 nM.

Consider `CC(C)(C)c1ncc(OCc2cc(F)c(C(=O)NS(C)(=O)=O)cc2Cl)cc1Cl` [Example 38, 4-{[(6-tert-Butyl-5-chloropyridin-3-yl)oxy]methyl}-5-chloro-2-fluoro-N-(methylsulfonyl)benzamide], for which the IC50 was 21.5 nM.

As to `[2H]C([2H])([2H])C([2H])(Oc1ncc(OCc2cc(F)c(C(=O)NS(C)(=O)=O)cc2Cl)cc1Cl)C([2H])([2H])[2H]` [Example 39, 5-Chloro-4-{[(5-chloro-6-d7-isopropoxypyridin-3-yl)oxy]methyl}-2-fluoro-N-(methylsulfonyl)benzamide], the IC50 was 39.9 nM.

Consider `CS(=O)(=O)NC(=O)c1cc(Cl)c(COc2cnc(OC(F)F)c(Cl)c2)cc1F` [Example 41, 5-Chloro-4-({[5-chloro-6-(difluoromethoxy)pyridin-3-yl]oxy}methyl)-2-fluoro-N-(methylsulfonyl)benzamide], for which the IC50 is 62.3 nM.

`CS(=O)(=O)NC(=O)c1cc(Cl)c(COc2cnc(C3CC3)c(Cl)c2)cc1F` [Example 42, 5-Chloro-4-{[(5-chloro-6-cyclopropylpyridin-3-yl)oxy]methyl}-2-fluoro-N-(methylsulfonyl)benzamide]: the IC50 is 51.8 nM.

For `CS(=O)(=O)NC(=O)c1cc(Cl)c(COc2cnc(OCC(F)(F)F)c(Cl)c2)cc1F` [Example 43, 5-Chloro-4-({[5-chloro-6-(2,2,2-trifluoroethoxy)pyridin-3-yl]oxy}methyl)-2-fluoro-N-(methylsulfonyl)benzamide], the IC50 was 42.5 nM.

For the compound `CS(=O)(=O)NC(=O)c1cc(Cl)c(COc2cnc(OCCC(F)(F)F)c(Cl)c2)cc1F` [Example 44, 5-Chloro-4-({[5-chloro-6-(3,3,3-trifluoropropoxy)pyridin-3-yl]oxy}methyl)-2-fluoro-N-(methylsulfonyl)benzamide], the IC50 was 25.8 nM.
